As usually defined, the IC50 is the concentration that inhibits the measured activity by half. For orientation: IC90 means the concentration at which the effect reaches the 90% level.

Each structure is given as a SMILES string.

For this experiment, the system named is Plasmodium berghei. Description: Luciferase/luciferin-expressing antifolate-resistant parasites were used to infect a culture of HepG2 cells that were pre-incubated with compounds. Infected hepatocytes emit light due to the luciferase reaction. Assay results are presented as the percent inhibition of light emission compared to control. […]. In kind it is functional. The settings on record: sporozoite; for IC90: read-out: LUCIFERASE INFECTION ASSAY - IC90.

[1] abbreviates: read-out: LUCIFERASE INFECTION ASSAY - IC50.

On to `CNc1nc(-c2cccnc2)nc2sc(-c3ccccc3)cc12`, for which the 90% effect concentration (IC90) was above 10 µM. The IC50 (PBLUC_HILL_SLOPE 3.26, PBLUC_R_SQUARED 0.654, read-out: LUCIFERASE INFECTION ASSAY - IC50) is 6.22 µM.

Consider `O=C(CCc1ncc(-c2ccccc2)o1)Nc1ncccc1O`, for which the IC90 was above 10 µM. For the same compound, the 50% inhibitory concentration (IC50) under setting [1] is above 10 µM.

As to `CCCCNC(=O)c1c(NCCC)sc(C(=O)c2ccc(OC)cc2)c1N`, the IC90 was above 10 µM. Further, the half-maximal inhibitory concentration (IC50) (PBLUC_HILL_SLOPE 4.7, PBLUC_R_SQUARED 0.148, read-out: LUCIFERASE INFECTION ASSAY - IC50) came out at 8.99 µM.

Consider `N#C/C(=C\c1cn(Cc2ccccc2)nc1-c1cccnc1)c1nc2ccccc2[nH]1`, for which the 90% effect concentration (IC90) amounted to 8.82 µM. In addition, the 50% inhibitory concentration (IC50) (PBLUC_HILL_SLOPE 2.49, PBLUC_R_SQUARED 0.607, read-out: LUCIFERASE INFECTION ASSAY - IC50) was determined as 3.65 µM.

In the case of `Cc1nc(C2CC2)ncc1-c1nc(=Nc2ccccc2)s[nH]1`, the 90% effect concentration (IC90) was above 10.7 µM. Further, the IC50 (HEPG2TOX_HILL_SLOPE 2.45, HEPG2TOX_R_SQUARED 0.884, PBLUC_HILL_SLOPE 3.42, PBLUC_R_SQUARED 0.283, read-out: LUCIFERASE INFECTION ASSAY - IC50) came to 7.23 µM.

With `O=C(Nc1ccc(S(=O)(=O)NCCCN2CCOCC2)cc1)c1csc(-c2ccsc2)n1`, the concentration for an effect of 90% (IC90) was above 10 µM. For the setting “PBLUC_HILL_SLOPE 27, PBLUC_R_SQUARED 0.0565, read-out: LUCIFERASE INFECTION ASSAY - IC50”, the concentration for half-maximal inhibition (IC50) worked out at 9.66 µM.

As to `CCc1ccc(S(=O)(=O)N2[C@@H]3CC[C@@H](C3)[C@H]2c2nc3c(OC(C)C)cccc3[nH]2)cc1`, the IC90 is above 10 µM. Also, the concentration for half-maximal inhibition (IC50) (HEPG2TOX_HILL_SLOPE 3.46, HEPG2TOX_R_SQUARED 0.87, PBLUC_HILL_SLOPE 16.2, PBLUC_R_SQUARED 0.535, read-out: LUCIFERASE INFECTION ASSAY - IC50) was determined as 9.38 µM.

`CCOC(=O)/C(=C\c1ccc(Cl)c([N+](=O)[O-])c1)C1=Nn2c(nnc2-c2cccs2)SC1`: the IC90 is above 10 µM. Under setting [1], the IC50 is above 10 µM.

For `Cc1oc(C(C)(C)C)cc1-c1cc(NC(=O)Nc2ccccc2C#N)n(-c2cc(C(F)(F)F)cc(C(F)(F)F)c2)n1`, the 90% effect concentration (IC90) came to 3 µM. Moreover, where the note is “HEPG2TOX_HILL_SLOPE 5.04, HEPG2TOX_R_SQUARED 0.982, PBLUC_HILL_SLOPE 7.22, PBLUC_R_SQUARED 0.381, read-out: LUCIFERASE INFECTION ASSAY - IC50”, the IC50 amounted to 2.22 µM.

Consider `CCOC(=O)/C(C)=N/Nc1ccc(OC(F)(F)F)cc1`, for which the IC90 is above 11.4 µM. The half-inhibitory concentration (IC50) (FFLUC_HILL_SLOPE 15.6, FFLUC_R_SQUARED 0.429, HEPG2TOX_HILL_SLOPE 8.88, HEPG2TOX_R_SQUARED 0.352, PBLUC_HILL_SLOPE 1.63, PBLUC_R_SQUARED 0.496, read-out: LUCIFERASE INFECTION ASSAY - IC50) was found to be 9.31 µM.

For `CCCCn1nc(C(=O)NC(c2ccccc2)c2ccc(OC)cc2)c2ccccc2c1=O` (stereo unspecified), the concentration for an effect of 90% (IC90) is above 10 µM. For the same compound, the concentration for half-maximal inhibition (IC50) under setting [1] was above 10 µM.

As for `COc1cc2c(cc1NC(=O)c1cccc(F)c1)CCCC2`, the 90% effect concentration (IC90) was above 11 µM. For the same compound, the half-maximal inhibitory concentration (IC50) under setting [1] is 4.59 µM.

`CC(=O)c1cccc(-c2cnc3ccc(-c4cccc(C(N)=O)c4)nn23)c1`: the concentration for an effect of 90% (IC90) is 0.628 µM. In addition, the IC50 (HEPG2TOX_HILL_SLOPE 1.55, HEPG2TOX_R_SQUARED 0.943, PBLUC_HILL_SLOPE 2.62, PBLUC_R_SQUARED 0.854, read-out: LUCIFERASE INFECTION ASSAY - IC50) was determined as 0.271 µM.

In the case of `Cn1ccc2cc(-c3cn4c(-c5ccc(C(=O)NC6CC6)cc5)cnc4cn3)ccc21`, the concentration for an effect of 90% (IC90) stood at 3.32 µM. In addition, the IC50 under setting [1] came to 2.7 µM.

Turning to `CNc1nc2cnc(Nc3cc(C(F)(F)F)ccc3F)cc2n1Cc1ccccc1`, the concentration for an effect of 90% (IC90) was above 10 µM. The IC50 under setting [1] was above 10 µM.

Take `Clc1ccc(C2=NC(c3ccc(Cl)c(Cl)c3)N=C(c3ccc(Cl)cc3)S2)cc1`: the IC90 was above 7.08 µM. The IC50 (PBLUC_HILL_SLOPE 0.411, PBLUC_R_SQUARED 0.521, read-out: LUCIFERASE INFECTION ASSAY - IC50) was above 7.08 µM.

On to `CC(C)CNc1nn2c(-c3ccc(O)cc3)cnc2s1`, for which the IC90 was above 11.4 µM. Also, the IC50 under setting [1] is above 11.4 µM.

On to `COCCNc1ccc([N+](=O)[O-])cc1C(=O)Nc1nc2c(C)cccc2s1`, for which the IC90 was above 10 µM. For the same compound, where the note is “HEPG2TOX_HILL_SLOPE 9.09, HEPG2TOX_R_SQUARED 0.757, PBLUC_HILL_SLOPE 15.6, PBLUC_R_SQUARED 0.06, read-out: LUCIFERASE INFECTION ASSAY - IC50”, the 50% inhibitory concentration (IC50) worked out at 9.61 µM.

Turning to `O=C(NNC(=O)c1cnn(-c2ccccc2)c1C(F)(F)F)c1ccc2ccccc2n1`, the 90% effect concentration (IC90) is 3.75 µM. Besides, the IC50 (HEPG2TOX_HILL_SLOPE 2.84, HEPG2TOX_R_SQUARED 0.957, PBLUC_HILL_SLOPE 16.4, PBLUC_R_SQUARED 0.688, read-out: LUCIFERASE INFECTION ASSAY - IC50) amounted to 3.28 µM.

Turning to `Cc1nn(-c2ccccc2)c2c1C(C(F)(F)F)(C(F)(F)F)OC(c1cccc(S(=O)(=O)N3CCCCC3)c1)=N2`, the concentration for an effect of 90% (IC90) is above 10 µM. Further, under setting [1], the IC50 was above 10 µM.

As to `CC(C)NC(=O)/C(C#N)=C/c1cccc(Cl)c1Cl`, the concentration for an effect of 90% (IC90) was above 10 µM. Where the note is “HEPG2TOX_HILL_SLOPE 9.7, HEPG2TOX_R_SQUARED 0.0223, read-out: LUCIFERASE INFECTION ASSAY - IC50”, the IC50 is above 10 µM.

For the compound `CN(CC(=O)N1CCN(C(c2ccc(F)cc2)c2ccc(F)cc2)CC1)C1=NS(=O)(=O)c2ccccc21`, the 90% effect concentration (IC90) was above 10 µM. The IC50 under setting [1] was above 10 µM.

Consider `CCC(C)NC(=O)c1c(NC(=O)c2ccc(Cl)cc2Cl)nc2ccc(C)cn12` (stereo unspecified), for which the 90% effect concentration (IC90) turned out to be 0.967 µM. Besides, the IC50 (FFLUC_HILL_SLOPE 13.5, FFLUC_R_SQUARED 0.613, HEPG2TOX_HILL_SLOPE 1.25, HEPG2TOX_R_SQUARED 0.963, PBLUC_HILL_SLOPE 11.1, PBLUC_R_SQUARED 0.736, read-out: LUCIFERASE INFECTION ASSAY - IC50) is 0.793 µM.

Take `Oc1cccc2c(NC(S)=Nc3ccc(OC(F)F)cc3)cccc12`: the concentration for an effect of 90% (IC90) turned out to be 5.27 µM. Besides, for the setting “HEPG2TOX_HILL_SLOPE 12, HEPG2TOX_R_SQUARED 0.725, PBLUC_HILL_SLOPE 8.83, PBLUC_R_SQUARED 0.0853, read-out: LUCIFERASE INFECTION ASSAY - IC50”, the IC50 came to 4.11 µM.

Regarding `O=C(/C=C/c1ccccc1OC(F)F)N(Cc1ccccc1)c1nnc(SC(F)F)s1`, the IC90 was 3.6 µM. The 50% inhibitory concentration (IC50) (HEPG2TOX_HILL_SLOPE 8.23, HEPG2TOX_R_SQUARED 0.589, PBLUC_HILL_SLOPE 26.6, PBLUC_R_SQUARED 0.272, read-out: LUCIFERASE INFECTION ASSAY - IC50) was 3.31 µM.

As for `CCOC(=O)c1cnc2cc(Cl)c(F)cc2c1N1CCOCC1`, the IC90 is above 9.74 µM. Further, the IC50 under setting [1] was above 9.74 µM.

As to `CC(OC(=O)c1ccc2ncsc2c1)C(=O)N1CCCC1` (stereo unspecified), the IC90 is above 10 µM. Further, under setting [1], the concentration for half-maximal inhibition (IC50) is above 10 µM.

As to `Cc1ccccc1COC(=O)C1(NC(=O)NCc2ccccc2)CCCC1`, the IC90 was above 10 µM. The IC50 under setting [1] is above 10 µM.

With `CN(C)C(=O)c1ccc(-c2cnc3cnc(-c4ccccc4Oc4ccccc4)cn23)cc1`, the IC90 worked out at 3.65 µM. Further, the IC50 (PBLUC_HILL_SLOPE 8.03, PBLUC_R_SQUARED 0.291, read-out: LUCIFERASE INFECTION ASSAY - IC50) came out at 2.77 µM.

Regarding `OC(COc1ccccc1F)CN1CCN(Cc2csc3ccccc23)CC1` (stereo unspecified), the 90% effect concentration (IC90) is above 10 µM. Further, the IC50 (PBLUC_HILL_SLOPE 13.5, PBLUC_R_SQUARED 0.264, read-out: LUCIFERASE INFECTION ASSAY - IC50) is above 10 µM.

In the case of `COc1ccc(Cl)cc1NC(=O)C(C)NCC(c1ccccc1)c1c[nH]c2ccccc12` (stereo unspecified), the 90% effect concentration (IC90) is above 10 µM. Further, under setting [1], the IC50 was determined as 6.47 µM.

In the case of `Cc1cc(C(=O)NN2Cc3ccccc3C2=N)c(C)n1-c1ccccc1`, the 90% effect concentration (IC90) was above 10 µM. Moreover, the IC50 (HEPG2TOX_HILL_SLOPE 1.03, HEPG2TOX_R_SQUARED 0.677, read-out: LUCIFERASE INFECTION ASSAY - IC50) is above 10 µM.

As to `CN(C)S(=O)(=O)c1ccc2nnn(OCCCOc3ccc(C(C)(C)C)cc3)c2c1`, the IC90 is above 10 µM. Further, the half-maximal inhibitory concentration (IC50) under setting [1] was above 10 µM.

For the compound `O=C(Nc1nccs1)c1ccc(N2CCCCCC2)nc1`, the 90% effect concentration (IC90) was above 10 µM. Further, the IC50 (PBLUC_HILL_SLOPE 1.4, PBLUC_R_SQUARED 0.612, read-out: LUCIFERASE INFECTION ASSAY - IC50) was determined as 2.36 µM.

Turning to `Cc1ccc2nc(-c3ccc(NC(=O)COC(=O)c4oc5ccccc5c4COC(C)C)cc3)sc2c1`, the IC90 is above 10 µM. For the same compound, where the note is “FFLUC_HILL_SLOPE 11.7, FFLUC_R_SQUARED 0.82, PBLUC_HILL_SLOPE 2.16, PBLUC_R_SQUARED 0.259, read-out: LUCIFERASE INFECTION ASSAY - IC50”, the IC50 came to 9.03 µM.

In the case of `O=C(NCC(=O)N1CCCC1)c1cccc2c3c([nH]c12)CCCCC3`, the IC90 stood at 3.72 µM. In addition, under “PBLUC_HILL_SLOPE 19.4, PBLUC_R_SQUARED 0.17, read-out: LUCIFERASE INFECTION ASSAY - IC50”, the IC50 is 3.32 µM.

As for `COc1ccc(C(N)c2csc(NC(=O)c3cc(C(C)(C)C)nn3Cc3ccccc3)n2)cc1` (stereo unspecified), the IC90 was 4.86 µM. Besides, the concentration for half-maximal inhibition (IC50) (HEPG2TOX_HILL_SLOPE 0.0688, HEPG2TOX_R_SQUARED 0.351, PBLUC_HILL_SLOPE 6.29, PBLUC_R_SQUARED 0.765, read-out: LUCIFERASE INFECTION ASSAY - IC50) came out at 3.43 µM.

In the case of `Cc1cc(NC(=O)/C=C/c2cn(-c3ccccc3)nc2-c2cccnc2)ccc1N1CCN(C)CC1`, the IC90 is 4.23 µM. The IC50 (PBLUC_HILL_SLOPE 11.7, PBLUC_R_SQUARED 0.29, read-out: LUCIFERASE INFECTION ASSAY - IC50) came out at 3.5 µM.

The values above are taken from ChEMBL document CHEMBL4483862, “Open-source discovery of chemical leads for next-generation chemoprotective antimalarials” (2018).
